Values of other authors as cited in US20070178561A1, “Anti-hiv-1 compounds based upon a conserved amino acid sequence shared by gp160 and the human cd4 protein” (priority 2003, published 2007).

How the values were obtained:
HIV-1 = conditions: in vitro viral cell growth assays using p24
gp160 = gp160 (Human immunodeficiency virus type 1 group M subtype B, UniProt P04578); conditions: Jiang et al., Nature 365:113, 1993

**Q.** Which “inhibition of viral growth (p24)” value (HIV-1) does the source give for “TNWLWYIKLFIMIVGGLVGLRIVFAKKKC [683-707KKKC]” here?
**A.** Its value is “does not inhibit viral growth”.

**Q.** And the “binding to gp160” value (gp160)?
**A.** Its value is “bound gp160”.
